Measurements from publication PMC12645137 (Current Neuropharmacology, 2025).

How the values were obtained:
[1] = target: T1, BChE (source equine serum) (Equus caballus, UniProt P81908); experiment: biochemical
T1 construct: from tissue; host or cells: equine serum
Description: (§1) The cholinesterase inhibitory potentials of our synthesized compounds were evaluated against cholinesterase enzymes (AChE/BChE). The AChE (source Electric eel) and BChE (source equine serum) were used in the study following previously published Ellman's assay. The assay basic principle involves the hydrolytic breakdown of acetylthiocholine iodide (ATChI) by AChE and butyryl thiocholine iodide (BTChI) by BChE enzymes, leading to the formation of an intermediate compound which is subsequently complexed with 5,5-dithio bis nitrobenzoic acid (DTNB) to form a UV-detectable compound. The yellowish color product indicates the hydrolysis of ATChI and BTChI substrates by respective enzymes, which were analyzed at 412 nm using a UV-visible spectrophotometer. […] A test sample of 1000 µl was taken in a cuvette, to which enzyme solution (50 µl) and DTNB reagent of 50 µL were added. The AChE (0.03 U/ml) and BChE (0.01 U/ml) solutions were prepared in 0.1 M phosphate buffer having pH 8.0. The ATChI and BTChI substrate solutions (0.0005 M) and 0.0002273 M solution of DTNB were prepared using distilled water and stored at 8°C before further use. For 15 minutes, the solution mixture was incubated at 30 °C, after which a solution of the substrate (50 µl) was added and then subjected to spectroscopic analysis. Using a double beam spectrophotometer, the sample absorbance was measured for 4 minutes at 412 nm beside the time of reaction. […] All values were taken in triplicate under the same conditions.
(§2) Enzymatic activity percentage=V/Vmaxx100
(§3) V is the reaction rate in the inhibitor's presence, whereas Vmax is the reaction rate in the absence of the inhibitor.

[2] = target: T2, AChE (source Electric eel) (Electrophorus electricus, UniProt O42275); experiment: biochemical
T2 construct: from tissue
Description: as §1, §2, §3

[3] = test system: scopolamine-induced amnesic mice; experiment: Elevated Plus Maze (EPM) test in scopolamine-induced amnesic animals; type: in vivo, albino mice; settings: scopolamine 1 mg/kg amnesic mice, i.p., AN-1 10 mg/kg, progesterone 10 mg/kg, galantamine 8 mg/kg
Description: (§4) The mice were divided into the following five groups, and each group had six animals. The standard drug and test samples were carefully administered to the mice via the intraperitoneal route.
(§5) Group IV (Progesterone treated group) = Animals treated with 10 mg/kg progesterone and scopolamine 1 mg/kg.
(§6) Group V (Test compound group) = Animals received 10 mg/kg progesterone derivative (AN-1) and 1 mg/kg scopolamine.
The EPM behavioral test was performed to assess the learning abilities and long-term spatial memory of the experimental animals. The EPM apparatus has the appearance of a plus sign which was 50 cm elevated from the ground. The apparatus has two open arms (50 cm long and 10 cm wide), and two closed arms having dimensions of 20, 50, and 10 cm in height, length, and width, respectively. The open and closed arms were joined with a 10 × 10 central square.
After 30 minutes of the intraperitoneal drug administration on the seventh day of treatment, mice of each group were placed over the open arm end of the EPM apparatus in such a way that their faces were away from the midpoint of the apparatus. Transfer latency (TL) is the time a mouse takes to enter the closed arm entirely with all its legs from the open arm of the apparatus. The time of initial transfer latency (ITL) was observed, and then the animals were allowed freely for 1.5 minutes to search the EPM apparatus.
After twenty-four hours of the training period, test trials were conducted to determine the retention of tasks that were learnt during training. Retention transfer latency (RTL) was measured by placing the experimental mice at the open end of the apparatus, ensuring that they faced away from its midpoint. The mouse was allowed to enter the closed arm entirely with all its legs. A decline in TL compared to ITL indicated an improvement in memory.

[4] = test system: scopolamine-induced amnesic mice; experiment: Open field test (OFT) in scopolamine-induced amnesic animals; type: in vivo, albino mice; settings: i.p., AN-1 10 mg/kg, progesterone 10 mg/kg, galantamine 8 mg/kg
Description: as §4, §5, §6
Open field behavioral test was carried out for the assessment of locomotor activities like the number of line crossing. The apparatus was made from plywood having 81×81×28.5 cm dimensions. Sixteen squares (20×20 cm) were made on the base of the apparatus by drawing four horizontal and four vertical lines. […] Furthermore, exploration time spent by mice in central and peripheral areas of the apparatus was also recorded by allowing the mice for 30 minutes to explore the apparatus.

[5] = test system: scopolamine-induced amnesic mice; experiment: Y-Maze test in scopolamine-induced amnesic animals; type: in vivo, albino mice; settings: scopolamine 1 mg/kg amnesic mice, i.p., AN-1 10 mg/kg, progesterone 10 mg/kg, galantamine 8 mg/kg, disease group 22.27%
Description: as §4, §5, §6
To determine the effect of synthesized compounds on short-term learning and memory of experimental mice, a Y-Maze test was used. The Y-Maze apparatus consists of three arms that are fixed at 120° angle from each other and have 30 cm length, 20 cm height, and 8 cm width dimensions. After 30 minutes of giving test compounds intraperitoneally, the mouse was positioned at the arm end in such a way that it faced away from the midpoint of the apparatus and was permitted to search the apparatus for five minutes freely. The arm entry sequence and number by each mouse were recorded for 5 minutes using a digital camera. Alternation is defined as the successive entry into 3 dissimilar arms by a mouse (i.e., CBA, BCA, ABC). When the back paws of a mouse were found inside an arm wholly, the arm entry was considered completed. Seventy percent v/v ethanol was used for cleaning the apparatus and to avoid smell cues. The spontaneous alternation performance (SAP) percentage was calculated using the following formula [37]:
% alternation = [(alternations number) / (total arm entries number – 2)] × 100

DPPH antioxidant assay = type: physicochemical; settings: for % Inhibition (DPPH free radicals): mean ± SEM
Description: To evaluate the in-vitro antioxidant potential of the synthesized derivatives, a previously reported 1,1 Diphenyl, 2 Picrylhydrazyl (DPPH) assay was utilized. The DPPH solution was prepared by dissolving twenty-four mg DPPH in methanol (100 ml). Test sample solutions in various concentrations (62.50 to 1000 μg/mL) were also prepared. From each dilution, 1 ml sample solution was taken to which 1 ml solution of DPPH was added. The solution mixture was incubated at 23°C for 30 minutes in the dark and then subjected to a UV-visible spectrophotometer to note the absorbance at 517 nm. The absorbance values of all samples were taken in triplicate. Ascorbic acid served as positive control, while negative control only contained a solution of DPPH having no test samples. The % free radical scavenging potential of our compounds was determined by the given formula.
% free radical scavenging activity = [drawing 2] x100
X is the control absorbance, whereas X1 is the absorbance of the test sample.

T2 sequence (O42275 24-633): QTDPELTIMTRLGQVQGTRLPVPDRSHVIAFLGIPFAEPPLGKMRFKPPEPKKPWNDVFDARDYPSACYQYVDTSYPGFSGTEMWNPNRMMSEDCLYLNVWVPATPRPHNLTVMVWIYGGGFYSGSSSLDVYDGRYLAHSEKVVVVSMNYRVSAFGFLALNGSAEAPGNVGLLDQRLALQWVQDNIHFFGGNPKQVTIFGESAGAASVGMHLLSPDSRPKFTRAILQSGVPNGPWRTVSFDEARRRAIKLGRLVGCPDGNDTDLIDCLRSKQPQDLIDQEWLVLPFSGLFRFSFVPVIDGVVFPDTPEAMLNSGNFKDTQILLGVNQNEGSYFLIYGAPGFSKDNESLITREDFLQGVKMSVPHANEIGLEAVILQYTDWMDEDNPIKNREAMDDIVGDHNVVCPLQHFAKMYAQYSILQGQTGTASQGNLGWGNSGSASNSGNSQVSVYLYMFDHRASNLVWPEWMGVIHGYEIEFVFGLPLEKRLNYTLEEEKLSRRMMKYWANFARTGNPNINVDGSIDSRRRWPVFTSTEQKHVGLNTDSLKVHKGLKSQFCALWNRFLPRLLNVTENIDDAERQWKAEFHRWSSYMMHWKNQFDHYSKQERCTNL
T1 sequence (P81908 whole entry): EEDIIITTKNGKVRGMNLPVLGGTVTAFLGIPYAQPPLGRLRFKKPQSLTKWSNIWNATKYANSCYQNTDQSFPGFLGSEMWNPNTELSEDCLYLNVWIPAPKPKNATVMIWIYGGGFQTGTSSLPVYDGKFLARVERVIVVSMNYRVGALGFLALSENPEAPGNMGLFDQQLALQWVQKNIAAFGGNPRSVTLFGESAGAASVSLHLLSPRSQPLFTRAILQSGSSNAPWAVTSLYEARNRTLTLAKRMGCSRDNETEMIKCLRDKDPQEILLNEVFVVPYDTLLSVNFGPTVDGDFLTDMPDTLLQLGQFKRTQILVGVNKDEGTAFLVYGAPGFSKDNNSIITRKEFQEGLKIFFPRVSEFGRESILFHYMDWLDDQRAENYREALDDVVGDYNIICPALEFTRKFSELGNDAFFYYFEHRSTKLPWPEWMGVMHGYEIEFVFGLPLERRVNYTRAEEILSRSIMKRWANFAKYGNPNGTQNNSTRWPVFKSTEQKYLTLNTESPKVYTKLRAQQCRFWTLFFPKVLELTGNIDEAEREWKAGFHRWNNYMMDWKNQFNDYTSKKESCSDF

## COc1ccc(C/N=C(/C)[C@H]2CC[C@H]3[C@@H]4CCC5=CC(=O)CC[C@]5(C)[C@H]4CC[C@]23C)cc1 [AN1, (8S,9S,10R,13S,14S)-17-((Z)-1-((4-methoxybenzyl)imino)ethyl)-10,13-dimethyl-1,2,6,7,8,9,10,11,12,13,14,15,16,17-tetradecahydro-3H-cyc-lopenta[a]phenanthren-3-one]
[1]
  IC50: 43.3 µM
[1]; read-out: % BChE Inhibition
  inhibition at 62.5 µg/mL: 61.5%
  inhibition at 125 µg/mL: 68.3%
  inhibition at 250 µg/mL: 71.9%
  inhibition at 500 µg/mL: 80.4%
  inhibition at 1000 µg/mL: 86.8 ± 1.24%
[2]
  IC50: 56.5 µM
[2]; read-out: % AChE Inhibition
  inhibition at 125 µg/mL: 69.4%
  inhibition at 250 µg/mL: 76.3%
  inhibition at 500 µg/mL: 83.2%
  inhibition at 1000 µg/mL: 88.9 ± 1.2%
[3]; 24 h after training, disease group 67 sec
  retention transfer latency (RTL): 45.33 s
[3]; disease group 73 sec
  initial transfer latency (ITL): 50.16 s
[4]; 5 min, scopolamine 1 mg/kg amnesic mice, disease group 26.33
  number of lines crossed: 43.66
[4]; 30 min exploration, scopolamine 1 mg/kg amnesic mice, disease group 4.66
  time spent in the central area: 10.33 mint
[4]; versus scopolamine/disease group
  time spent in the peripheral area: significantly (p<0.01) less time in the peripheral area
[5]
  spontaneous alternation: 42.72 ± 9.41%
[5]; listed as AN-1
  spontaneous alternation: 42.72%
DPPH antioxidant assay
  IC50: 57.2 µM
DPPH antioxidant assay; 62.5 µg/ml
  % Inhibition (DPPH free radicals): 56.46 ± 1.12%
DPPH antioxidant assay; 125 µg/ml
  % Inhibition (DPPH free radicals): 67.64 ± 3.04%
DPPH antioxidant assay; 250 µg/ml
  % Inhibition (DPPH free radicals): 70.00 ± 3.95%
DPPH antioxidant assay; 500 µg/ml
  % Inhibition (DPPH free radicals): 76.15 ± 2.31%
DPPH antioxidant assay; 1000 µg/ml
  % Inhibition (DPPH free radicals): 83.37 ± 2.03%
